In publication PMC10669656, “ADMET and Solubility Analysis of New 5-Nitroisatine-Based Inhibitors of CDK2 Enzymes” (Biomedicines, 2023):
Values after ≈ are worked out from the molar mass of the structure shown. Values joined by “and” are separate entries in the source; they are usually repeats but may differ in a detail not shown here. Equal values may be shown once.

Tests used:
Assay type in all cases: physicochemical
[1] = Solubility in neat solvents, shake-flask with spectrophotometric determination; conditions: for solubility at 24 h: 25 °C, organic solvent or mixture, thermodynamic from solid
Description: (§1) The calibration curves for each derivative were obtained using successful dilutions of initial stock solutions followed by spectrophotometric measurements of the obtained solutions with decreasing concentration. The concentration ranges for the derivatives 1, 2, and 3 were 0.0081–0.0405 mg/mL, 0.0077–0.0385 mg/mL, and 0.0068–0.017 mg/mL, respectively. Methanol was used both as a solvent, as well as a reference for spectrophotometric measurements. […] The A360 spectrophotometer from AOE Instruments was used for the preparation of the calibration curves. […] Three calibration curves were prepared for each derivative and then averaged.
(§2) A multi-step procedure was employed in order to find the solubility of the studied derivatives in the selected solvents. First of all, the excess amount of the considered compound was added to test tubes containing either neat solvents or their mixtures with water in different proportions, thus forming binary solvents. Saturated solutions were obtained in this way, placed in a Shaker Incubator ES-20/60 from Biosan, and incubated for 24 h at 298.1 K. The temperature adjustment was possible with a 0.1-degree accuracy, and the variance within a 24 h cycle was 0.5 degrees. The samples were simultaneously mixed at 60 rev/min. After incubation, the samples were filtered with the help of plastic syringes equipped with PTFE filters with 0.22 µm pore size. The obtained filtrates were diluted with methanol in another set of test tubes. In order to determine the mole fractions of a solute in the solution, 1 mL of the filtered samples was weighed in 10 mL volumetric flasks using a RADWAG AS 110 R2.PLUS analytical balance. The samples diluted with methanol were measured spectrophotometrically using the same instrument as was used in the case of calibration curves. The spectra were recorded in the wavelength range of 190–500 nm, and the resolution was 1 nm. Methanol was used if further dilution of the sample was required, and it was also used as a reference for calibrating the spectrophotometer. The absorbance values at 315 nm, 321 nm, and 321 nm were taken into account for derivatives 1, 2, and 3, respectively. Based on the calibration curves, the concentration of the solute in the samples was determined together with its mole fraction. Three separate measurements were conducted, and the final values are the results of averaging them.

[2] = Solubility in DMSO-water binary mixtures; conditions: for solubility at 24 h: 25 °C, thermodynamic from solid
Description: as §1, §2

[3] = Solubility in NMP-water binary mixtures; conditions: for solubility at 24 h: thermodynamic from solid
Description: as §1, §2

[4] = neat γ-nonanoic lactone, 298.1 K

O=C1Nc2ccc([N+](=O)[O-])cc2C1=NNC(=O)c1cccc([N+](=O)[O-])c1 [derivative 3, 3-nitro-N′-[5-nitro-2-oxo-1,2-dihydro-3H-indol-3-ylidene]benzohydrazide]
solubility at 24 h ([1]; neat DMF, 298.1 K): 1690 µg/mL (≈ 4.76 mM)
solubility at 24 h ([1]; neat DMP, 298.1 K): 80 µg/mL (≈ 0.225 mM)
solubility at 24 h ([1]; neat DMSO, 298.1 K): 3090 µg/mL (≈ 8.7 mM)
solubility at 24 h ([1]; neat NMP, 298.1 K): 8990 µg/mL (≈ 25.3 mM)
solubility at 24 h ([1]; neat acetone, 298.1 K): 210 µg/mL (≈ 0.591 mM)
solubility at 24 h ([1]; neat acetonitrile, 298.1 K): 170 µg/mL (≈ 0.479 mM)
solubility at 24 h ([1]; neat cyrene, 298.1 K): 290 µg/mL (≈ 0.816 mM)
solubility at 24 h ([1]; neat diglyme, 298.1 K): 520 µg/mL (≈ 1.46 mM)
solubility at 24 h ([1]; neat dioxane, 298.1 K): 310 µg/mL (≈ 0.873 mM)
solubility at 24 h ([1]; neat ethyl lactate, 298.1 K): 180 µg/mL (≈ 0.507 mM)
solubility at 24 h ([1]; neat methanol, 298.1 K): 60 µg/mL (≈ 0.169 mM)
solubility at 24 h ([1]; neat tetraglyme, 298.1 K): 430 µg/mL (≈ 1.21 mM)
solubility at 24 h ([1]; neat triglyme, 298.1 K): 230 µg/mL (≈ 0.647 mM)
solubility at 24 h ([1]; neat γ-heptalactone, 298.1 K): 440 µg/mL (≈ 1.24 mM)
solubility at 24 h [1, 4]: 280 µg/mL (≈ 0.788 mM)
solubility at 24 h ([1]; neat 1-butanol): 20 µg/mL (≈ 0.0563 mM)
solubility at 24 h ([1]; neat 1-propanol): 20 µg/mL (≈ 0.0563 mM)
solubility at 24 h ([1]; neat 4FM): 940 µg/mL (≈ 2.65 mM)
solubility x ([1]; neat 4FM, 298.1 K): 2.65 (0.11) × 10^−4 mole fraction
solubility x ([1]; neat DMF, 298.1 K): 3.69 × 10^−4 mole fraction and 3.69 (0.05) × 10^−4 mole fraction
solubility x ([1]; neat DMP, 298.1 K): 0.27 (0.01) × 10^−4 mole fraction
solubility x ([1]; neat DMSO, 298.1 K): 6.12 × 10^−4 mole fraction and 6.12 (0.10) × 10^−4 mole fraction
solubility x ([1]; neat NMP, 298.1 K): 2.44 × 10^−3 mole fraction and 2.44 (0.07) × 10^−3 mole fraction
solubility x ([1]; neat acetone, 298.1 K): 0.43 (0.01) × 10^−4 mole fraction
solubility x ([1]; neat cyrene, 298.1 K): 0.83 (0.01) × 10^−4 mole fraction
solubility x ([1]; neat diglyme, 298.1 K): 2.08 (0.07) × 10^−4 mole fraction
solubility x ([1]; neat dioxane, 298.1 K): 0.74 (0.01) × 10^−4 mole fraction
solubility at 24 h ([1]; neat ethanol): 30 µg/mL (≈ 0.0844 mM)
solubility x ([1]; neat ethyl lactate, 298.1 K): 0.57 (0.01) × 10^−4 mole fraction
solubility x ([1]; neat tetraglyme, 298.1 K): 2.67 (0.09) × 10^−4 mole fraction
solubility x ([1]; neat triglyme, 298.1 K): 1.17 (0.05) × 10^−4 mole fraction
solubility x ([1]; neat γ-heptalactone, 298.1 K): 1.59 (0.04) × 10^−4 mole fraction
solubility x [1, 4]: 1.26 (0.05) × 10^−4 mole fraction
solubility at 24 h ([1]; neat ε-caprolactone): 340 µg/mL (≈ 0.957 mM)
solubility x ([1]; neat ε-caprolactone, 298.1 K): 1.02 (0.02) × 10^−4 mole fraction
solubility at 24 h ([2]; DMSO-water binary mixture, aqueous with cosolvent or surfactant or cyclodextrin, x*DMSO 0.1, 298.1 K): 860 µg/mL (≈ 2.42 mM)
solubility at 24 h ([2]; DMSO-water binary mixture, aqueous with cosolvent or surfactant or cyclodextrin, x*DMSO 0.2, 298.1 K): 1580 µg/mL (≈ 4.45 mM)
solubility at 24 h ([2]; DMSO-water binary mixture, aqueous with cosolvent or surfactant or cyclodextrin, x*DMSO 0.3, 298.1 K): 2480 µg/mL (≈ 6.98 mM)
solubility at 24 h ([2]; DMSO-water binary mixture, aqueous with cosolvent or surfactant or cyclodextrin, x*DMSO 0.4, 298.1 K): 3300 µg/mL (≈ 9.29 mM)
solubility at 24 h ([2]; DMSO-water binary mixture, aqueous with cosolvent or surfactant or cyclodextrin, x*DMSO 0.5, 298.1 K): 3750 µg/mL (≈ 10.6 mM)
solubility at 24 h ([2]; DMSO-water binary mixture, aqueous with cosolvent or surfactant or cyclodextrin, x*DMSO 0.6, 298.1 K): 3950 µg/mL (≈ 11.1 mM)
solubility at 24 h ([2]; DMSO-water binary mixture, aqueous with cosolvent or surfactant or cyclodextrin, x*DMSO 0.7, 298.1 K): 4010 µg/mL (≈ 11.3 mM)
solubility at 24 h ([2]; DMSO-water binary mixture, aqueous with cosolvent or surfactant or cyclodextrin, x*DMSO 0.8, 298.1 K): 3850 µg/mL (≈ 10.8 mM)
solubility at 24 h ([2]; DMSO-water binary mixture, aqueous with cosolvent or surfactant or cyclodextrin, x*DMSO 0.9, 298.1 K): 3540 µg/mL (≈ 9.96 mM)
solubility at 24 h ([2]; DMSO-water series, organic solvent or mixture, x*DMSO 1.0, 298.1 K): 3090 µg/mL (≈ 8.7 mM)
solubility x ([2]; x*DMSO 0.2, 298.1 K): 1.21 (0.01) × 10^−4 mole fraction
solubility x ([2]; x*DMSO 0.3, 298.1 K): 2.29 (0.01) × 10^−4 mole fraction
solubility x ([2]; x*DMSO 0.4, 298.1 K): 3.57 (0.03) × 10^−4 mole fraction
solubility x ([2]; x*DMSO 0.5, 298.1 K): 4.59 (0.04) × 10^−4 mole fraction
solubility x ([2]; x*DMSO 0.6, 298.1 K): 5.45 (0.03) × 10^−4 mole fraction
solubility x ([2]; x*DMSO 0.7, 298.1 K): 6.09 (0.03) × 10^−4 mole fraction
solubility x ([2]; x*DMSO 0.8, 298.1 K): 6.47 (0.04) × 10^−4 mole fraction
solubility x ([2]; x*DMSO 0.9, 298.1 K): 6.51 (0.04) × 10^−4 mole fraction
solubility x ([2]; x*DMSO 1.0, 298.1 K): 6.12 (0.07) × 10^−4 mole fraction
solubility at 24 h ([3]; NMP-water binary mixture, x*NMP 0.1, 25 °C, aqueous with cosolvent or surfactant or cyclodextrin, x*NMP 0.1, 298.1 K): 1580 µg/mL (≈ 4.45 mM)
solubility at 24 h ([3]; NMP-water binary mixture, x*NMP 0.2, 25 °C, aqueous with cosolvent or surfactant or cyclodextrin, x*NMP 0.2, 298.1 K): 3290 µg/mL (≈ 9.26 mM)
solubility at 24 h ([3]; NMP-water binary mixture, x*NMP 0.3, 25 °C, aqueous with cosolvent or surfactant or cyclodextrin, x*NMP 0.3, 298.1 K): 4940 µg/mL (≈ 13.9 mM)
solubility at 24 h ([3]; NMP-water binary mixture, x*NMP 0.4, 25 °C, aqueous with cosolvent or surfactant or cyclodextrin, x*NMP 0.4, 298.1 K): 6490 µg/mL (≈ 18.3 mM)
solubility at 24 h ([3]; NMP-water binary mixture, x*NMP 0.7, 25 °C, aqueous with cosolvent or surfactant or cyclodextrin, x*NMP 0.7, 298.1 K): 9560 µg/mL (≈ 26.9 mM)
solubility at 24 h ([3]; NMP-water binary mixture, x*NMP 0.8, 25 °C, aqueous with cosolvent or surfactant or cyclodextrin, x*NMP 0.8, 298.1 K): 10200 µg/mL (≈ 28.7 mM)
solubility at 24 h ([3]; NMP-water binary mixture, x*NMP 0.9, 25 °C, aqueous with cosolvent or surfactant or cyclodextrin, x*NMP 0.9, 298.1 K): 9710 µg/mL (≈ 27.3 mM)
solubility at 24 h ([3]; NMP-water binary solvent, 25 °C, aqueous with cosolvent or surfactant or cyclodextrin, x*NMP 0.5, 298.1 K): 7720 µg/mL (≈ 21.7 mM)
solubility at 24 h ([3]; NMP-water binary solvent, 25 °C, aqueous with cosolvent or surfactant or cyclodextrin, x*NMP 0.6, 298.1 K): 8710 µg/mL (≈ 24.5 mM)
solubility at 24 h ([3]; NMP-water series, x*NMP 1.0, 25 °C, organic solvent or mixture, x*NMP 1.0, 298.1 K): 8990 µg/mL (≈ 25.3 mM)
solubility x ([3]; x*NMP 0.1, 298.1 K): 1.12 (0.01) × 10^−4 mole fraction
solubility x ([3]; x*NMP 0.2, 298.1 K): 3.05 (0.03) × 10^−4 mole fraction
solubility x ([3]; x*NMP 0.3, 298.1 K): 5.74 (0.10) × 10^−4 mole fraction
solubility x ([3]; x*NMP 0.4, 298.1 K): 8.92 (0.10) × 10^−4 mole fraction
solubility x ([3]; x*NMP 0.5, 298.1 K): 1.24 (0.01) × 10^−3 mole fraction
solubility x ([3]; x*NMP 0.6, 298.1 K): 1.60 (0.02) × 10^−3 mole fraction
solubility x ([3]; x*NMP 0.7, 298.1 K): 1.99 (0.02) × 10^−3 mole fraction
solubility x ([3]; x*NMP 0.8, 298.1 K): 2.29 (0.02) × 10^−3 mole fraction
solubility x ([3]; x*NMP 0.9, 298.1 K): 2.40 (0.03) × 10^−3 mole fraction
solubility x ([3]; x*NMP 1.0, 298.1 K): 2.44 (0.06) × 10^−3 mole fraction
